In US20080071190A1, “Timing of Ovulation Based on Vaginal Ph” (priority 2004, published 2008):
pEC50: −log10 of the molar value.

Experiments:
[1] = system: hECE cells (Human Ectocervical-Vaginal Epithelial Cells); assay: Determinations of extracellular pH (pHo) in luminal and contra-luminal solutions of hECE cells cultured on filters; assay type: cell-based
Method: Referring to FIG. 4A, hECE cells or Human Endocervical Cells were plated on Anocell filters (Anocel™-10, Oxon, UK, obtained through Sigma Chemicals, St. Louis, Mo.), which are ceramic-base filters, pore size of 0.02 μm width, 50 μm depth, and surface area of 0.6 cm^2. Filters 300 and 302 were coated with 4 μg/cm^2 collagen type IV and incubated at 37° C. overnight. The remaining collagen solution was aspirated and the filter was dried at 37° C. Before plating, filters 300 were rinsed 3 times with Hanks' Balanced Salt Solution. Cells were plated either on the upper surface 302 of one filter 300 (for determinations of luminal pHo) or on the bottom surface 304 of the other filter 300 (for determinations of the contra-luminal pHo) at 3·10^5 cells/cm^2. By plating at this relatively high density the cultures became confluent within 12 hours after plating.
Plates containing the filters were placed in a tissue culture incubator (37° C.), and pHo changes in the luminal and contra-luminal solutions were determined using AMANI-1000 microcombination pH electrodes 306 (Harvard Apparatus, Holliston, Mass., obtained through Genomics Solutions, Ann Harbor, Mich.). The AMANI-1000 pH sensor (stored in pH 7.0) is based on metal-metal oxide pH measurements and the pH sensitive layer is immobilized on plastic. The reference electrode employs an Ag/AgCl in 3.4 M KCl reference electrode, and the reference electrode junction is leak-free ensuring no leaks of KCl out of the reference electrode. The design of the pH electrodes 306 enabled their use for the purpose of the present experiments: tip diameter of 1 mm, depth of immersion 1 mm, and response time of less than 5 sec.
Electrodes 306 attached to a stand were held stable with the tip immersed in the solution within the upper compartment of the filter to a depth of about 2 mm avoiding direct contact between the electrode tip and the cultured cells. The electrodes were connected directly to a pH meter 310 (e.g., Accumet pH meter 910) (Fisher Scientific, Suwanee Ga.). After stabilization, the luminal and contraluminal solutions were gently aspirated using glass pipette, and replaced with fresh warmed (37° C.) Basic Salt Solution containing (in mM) NaCl (140), KCl (5), MgCl2 (1), CaCl2 (1), glucose (10), and 0.1% bovine serum albumin, pH 7.4. The volumes in the luminal and contraluminal compartments were 150 μl and 500 μl, respectively. Determinations of changes in pHo were made at time 0, and at 5 min intervals thereafter for up to 30 min.
To remove intracellular estrogens cells were grown in steroid-free medium as described. This procedure involved shifting cells on filters for three days prior to pHo assays to a medium composed of phenol-red-deficient (DMEM)/Ham's F12 or (Sigma Chemicals, St. Louis, Mo.) containing 8% heat inactivated fetal bovine serum that was previously treated with charcoal to remove steroids. Preparation of charcoal-treated serum was described; briefly, dextran-coated charcoal (Sigma Chemicals, St. Louis, Mo.) was dissolved at 8% in 0.15 M NaCl, autoclaved, mixed by stirring, spun and the pellet was resuspended as 1 gm/1.25 ml in H2O. Fetal bovine serum (Hyclone, Logan, Utah) was mixed with the activated charcoal-dextran at 20:1 (Vol:Vol) and incubated for 45 min at 55° C. At the completion of incubation the mixture was spun twice at 800 g for 20 min and the supernatant (serum) was decanted and collected. For experiments, cells were shifted to steroid-free medium for 3 days; alternatively, cells were shifted to the steroid-free medium for 24 hrs and treated with 17β-estradiol for two additional days.

Human Endocervical Cells = assay: Determinations of extracellular pH (pHo) in luminal and contra-luminal solutions of Human Endocervical Cells cultured on filters; assay type: cell-based; conditions: steroid-free medium and treatment with 10 nM estradiol, no effect
Method: Primary cultures of Human Endocervical Cells were obtained through Clonetics (Walkersville, Md.). Cells chosen for experiments were those obtained from tissues of two women reported as HPV negative, and the cultured Endocervical Cells were tested for mycoplasma. Primary Endocervical cultures were grown and subcultured into second passage using Clonetics proprietary Endocervical Medium (supplied with the cells), and thereafter maintained in hECE culture medium. Cells were characterized as epithelial cells based on typical morphology of a monolayered epithelium; the expression of involucrin; lack of expression of vimentin; and expression of tight junctions (not shown). […] The cells were defined as phenotypically endocervical (in contrast to ectocervical/vaginal) based on expression of apical villi, the abundant expression of cytokeratins 18/19, and minimal expression of cytokeratins 4/5 and 13. Both hECE cells and the Human Endocervical Cells (not shown) expressed functional estrogen receptors. […]
Plates containing the filters were placed in a tissue culture incubator (37° C.), and pHo changes in the luminal and contra-luminal solutions were determined using AMANI-1000 microcombination pH electrodes 306 (Harvard Apparatus, Holliston, Mass., obtained through Genomics Solutions, Ann Harbor, Mich.). […]

hECE cells = assay: Cell-vitality staining (MTT assay); assay type: cell-based, human; conditions: Steroid-Free Medium + substance, means ±SD, 3 to 4 repeats
Method: Cell-vitality staining was done using the 3-[4,5-dimethylthiazol-2-yl]-2,5-diphenyl tetrazolium bromide (MTT) assay. MTT serves as a substrate for mitochondrial dehydrogenases, and only viable functional mitochondria are capable of cleaving MTT to generate the colored product formazan. MTT solution was prepared by dissolving MTT at a concentration of 5 mg/ml in phosphate-buffered saline (PBS) composed of (mM) NaCl (137), KCl (2.68), Na2HPO4 (10), KH2PO4 (1.76), pH 7.4, and filtering the solution through Millipore filter. Following treatments/assays, cells on filters were washed with fresh and warm (37° C.) PBS and incubated for 60 min at 37° C. in MTT solution. At the completion of incubation, cells were washed with PBS, and solubilized in isopropanol containing 0.1 M HCl plus 1% Triton X-100. Lysates were mixed by pipetting to dissolve the reduced MTT crystals (during which time the colorless solution turned purple) and were spinned at 10,000 g for 5 min. The solubilized formazan was measured by determining absorption at 570 nm. Background absorbance at 690 nm was subtracted for each sample, and values were normalized to OD570 (optic density) of control unperturbed cells.

## C[C@]12CC[C@@H]3c4ccc(O)cc4CC[C@H]3[C@@H]1CC[C@@H]2O [17β-estradiol]
[1]; Homo sapiens, Epithelial cell, hECE cells grown in steroid-free medium, dose response FIG. 8B, read-out: EC50 of decrease in luminal pHo
  pEC50: ~9.30
[1]; hECE cells in steroid-free medium treated with 10 nM 17β-estradiol for two days, 30 min, steroid-free medium alone 7.11±0.02
  luminal pHo: 7.03±0.02
[1]; hECE cells in steroid-free medium, 0.1 nM 17β-estradiol, decreased from 7.26±0.03
  luminal pHo: 7.13±0.03
[1]; hECE cells in steroid-free medium, 1 nM
  effect on luminal pHo (dose response): reached near saturation
[1]; hECE cells in steroid-free medium, 100 nM
  effect on luminal pHo (dose response): no additional effect
[1]; hECE cells, steroid-free medium and treatment with 10 nM estradiol, no effect
  contra-luminal pHo: around 7.25
Human Endocervical Cells
  contra-luminal pHo or luminal pHo: around 7.25
hECE cells; Baseline
  hECE cell vitality (MTT staining normalized to OD570 of control unperturbed cells), Baseline: 96 ± 3%
hECE cells; after 30 min pHo measurement
  hECE cell vitality (MTT staining normalized to OD570 of control unperturbed cells), 30 min pHo: 94 ± 4%
